Consider 36 molecules from the Bradley open melting point set (2014).

Structures are written as SMILES. Values joined by “and” are separate entries in the source; they are usually repeats but may differ in a detail not shown here. Equal values may be shown once.

The melting point is the temperature of the solid-liquid transition.

`O=C(O)CS` [Sulfanylacetic acid] gave a melting point of -16.5 °C. `O=[N+]([O-])c1cccc(Cl)c1Cl` [2,3-dichloronitrobenzene] returned a melting point of 62 °C. `Cc1ccc(S(=O)(=O)N=S(C)(C)=O)cc1` [S,S-dimethyl-N-(p-toluenesulfonyl)sulfoximine] gave a melting point of 168 °C. The value for `O=C(CC(=O)C(F)(F)F)c1ccco1` [4,4,4-trifluoro-1-(2-furyl)-1,3-butanedione] was 21 °C; that for `Cc1cccc(C)c1N` [2,6-dimethylaniline] was 11 °C. As to `c1ccc2scnc2c1` [1,3-Benzothiazole], the melting point is 2 °C.

`CNc1ccccc1` [N-Methylaniline] gave a melting point of -57 °C. Next, `Oc1ccc(-c2ccccc2)cc1` [4-phenylphenol]: 166 °C; `O=C(O)c1cc(I)cc(I)c1I` [2,3,5-triiodobenzoic acid]: 221 °C; `CC(=O)C=Cc1oc2ccc(Cl)cc2c1-c1ccc(C)o1`: 119 °C. Molecule `O=C(NC(CO)C(=O)O)OCc1ccccc1` (stereo unspecified) [N-carbobenzoxy-serine] gave a melting point of 111 °C. The molecule `C=CC` [1-propene] came in with a melting point of -185 °C. Turning to `OB(O)c1ccc(C(F)(F)F)cc1` [4-(trifluoromethyl)benzeneboronic acid], the melting point came to 240 °C. As for `CNc1ccc(C(=O)O)cc1` [4-(methylamino)benzoic acid], the melting point worked out at 159 °C. In the case of `CC(C)OC(=O)/N=N/C(=O)OC(C)C` [diisopropyl azodicarboxylate], the melting point was determined as 4 °C. Molecule `O=C(O)c1ccc(O)cc1O` [2,4-Dihydroxybenzoic Acid] gave a melting point of 226 °C. Molecule `COc1cccc(C(N)=O)c1` [3-methoxybenzamide] returned a melting point of 133 °C. Next, `CC/C(=C(/CC)c1ccc(O)cc1)c1ccc(O)cc1` [4,4'-(3E)-Hex-3-ene-3,4-diyldiphenol]: 170 °C; `NC(=O)c1cnccn1` [pyrazinamide]: 190 °C and 189 °C; `O=Cc1coc2ccccc2c1=O` [chromone-3-carboxaldehyde]: 152 °C. In the case of `O=C(O)C12CC3CC(CC(C3)C1)C2` [adamantane-1-carboxylic acid], the melting point was found to be 175 °C.

`NC1CCCCC1` [cyclohexylamine] displayed a melting point of -18 °C. Regarding `CCC1(c2ccccc2)C(O)=NC(=O)N=C1O` [phenobarbital], the melting point was 176 °C. On to `CCCCCC=O` [hexanal], for which the melting point was -56 °C. On to `CC(=O)OC1CCC2(C)C(C1)CC1(OCCO1)C1C2CCC2(C)C1CCC21OCCO1` (stereo unspecified), for which the melting point is 208 °C.

In turn, `Nc1n[nH]cc1Br` [3-amino-4-bromo-1h-pyrazole] returned a melting point of 136 °C. Next, `N#CCc1ccccc1[N+](=O)[O-]` [(2-Nitrophenyl)acetonitrile]: 84 °C; `O=C=Nc1cccc([N+](=O)[O-])c1` [3-nitrophenyl isocyanate]: 52 °C; `C1CCNC1` [pyrrolidine]: -63 °C. Turning to `Cn1c(=O)c2c(ncn2C)n(C)c1=O` [Caffeine], the melting point is 238 °C. On to `O=C1C=CC(=O)C=C1` [p-benzoquinone], for which the melting point came out at 114 °C. `CC(C)CCCC(C)C1CCC2C3CC=C4CC(O)CCC4(C)C3CCC12C` (stereo unspecified) [cholest-5-en-3-ol]: the melting point was 148 °C. Take `CCC1CO1` (stereo unspecified) [1,2-butene oxide]: the melting point was -130 °C and -129 °C. `COC(=O)CCC(C)C1CCC2C3C(OC(C)=O)CC4CC(=O)CCC4(C)C3CC(=O)C12C` (stereo unspecified) [methyl 7-(acetyloxy)-3,12-dioxocholan-24-oate] came in with a melting point of 166 °C.

In turn, `Cn1ccnc1S` [2-mercapto-1-methylimidazole] registered a melting point of 146 °C. The molecule `OB(O)c1cccc2ccccc12` [1-naphthaleneboronic acid] yielded a melting point of 207 °C.
